Results published in US8247573B2, “Substituted N-(2-mercaptopyridin-3-yl)amides as KCNQ2/3 modulators” (Gruenenthal GmbH, priority 2009, dated 2012).
pEC50: −log10 of the molar value.

Target: T1, KCNQ2/3 channels (Homo sapiens, UniProt O43525+O43526)
T1 construct: expressed in transfected cells; host or cells: CHO-K1
Experiment: Fluorescence assay using a voltage-sensitive dye (fluorimetry)
Assay type: cell-based
Details: CHO-K1 cells expressing KCNQ2/3; for pEC50: agonistic activity; for Emax: read-out: Fluorimetry % efficacy (I/EC50, retigabine = 100%)
Method: Pharmacological Experiments Fluorescence Assay Using a Voltage-Sensitive Dye
Human CHO-K1 cells expressing KCNQ2/3 channels are cultivated adherently at 37° C., 5% CO2 and 95% humidity in cell culture bottles (e.g. 80 cm^2 TC flasks, Nunc) with DMEM-high glucose (Sigma Aldrich, D7777) including 10% FCS (PAN Biotech, e.g. 3302-P270521) or alternatively MEM Alpha Medium (1×, liquid, Invitrogen, #22571), 10% foetal calf serum (FCS) (Invitrogen, #10270-106, heat-inactivated) and the necessary selection antibiotics.
Before being seeded out for the measurements, the cells are washed with a 1×DPBS buffer without Ca^2+/Mg^2+ (e.g. Invitrogen, #14190-094) and detached from the bottom of the culture vessel by means of Accutase (PAA Laboratories, #L11-007) (incubation with Accutase for 15 min at 37° C.). The cell count then present is determined using a CASY™ cell counter (TCC model, Schärfe System) in order subsequently to apply 20,000 to 30,000 cells/well/100 μl of the described nutrient medium, depending on density optimisation for the individual cell line, to 96-well measuring plates of the Corning™ CellBIND™ type (flat clear-bottom black polystyrene microplates, #3340). Incubation is then carried out for one hour at room temperature, without gassing or adjusting the humidity, followed by incubation for 24 hours at 37° C., 5% CO2 and 95% humidity.
The voltage-sensitive fluorescent dye from the Membrane Potential Assay Kit (Red™ bulk format part R8123 for FLIPR, MDS Analytical Technologies™) is prepared by dissolving the contents of a vessel of Membrane Potential Assay Kit Red Component A in 200 ml of extracellular buffer (ES buffer, 120 mM NaCl, 1 mM KCl, 10 mM HEPES, 2 mM CaCl2, 2 mM MgCl2, 10 mM glucose; pH 7.4). After removal of the nutrient medium, the cells are washed with 200 μl of ES buffer, then covered with a layer of 100 μl of the dye solution prepared above and incubated for 45 min at room temperature with exclusion of light.
The fluorescence measurements are carried out with a BMG Labtech FLUOstar™, BMG Labtech NOVOstar™ or BMG Labtech POLARstar™ instrument (525 nm excitation, 560 nm emission, bottom-read mode). After incubation of the dye, 50 μl of the substances to be tested in the desired concentrations, or 50 μl of ES buffer for control purposes, are introduced into separate cavities of the measuring plate and incubated for 30 min at room temperature whilst being shielded from light. The fluorescence intensity of the dye is then measured for 5 min and the fluorescence value F1 of each well is thus determined at a given, constant time. 15 μl of a […] KCl solution […] are then added to each well. The change in fluorescence is subsequently measured until all relevant measured values have been obtained (mainly […]). At a given time after KCl application, a fluorescence value F2 is determined, in this case at the time of the fluorescence peak.
For calculation, the fluorescence intensity F2 is compared with the fluorescence intensity F1, and the agonistic activity of the target compound on the potassium channel is determined therefrom. F2 and F1 are calculated as follows: […]
In order to determine whether a substance has an agonistic activity,
[formula] is determined by adding to the reaction batch only the buffer solution instead of the substance to be tested, determining the value F1K of the fluorescence intensity, adding the potassium ions as described above and measuring a value F2K of the fluorescence intensity. Then F2K and F1K are calculated as follows: […]
A substance has an agonistic activity on the potassium channel if
Independently of the comparison of
[formula] it is also possible to conclude that a target compound has an agonistic activity if an increase in
[formula] is to be observed as the dosage of the target compound increases.
Calculations of EC50 values are carried out with the aid of Prism v4.0 software (GraphPad Softwares™).

[1] = relative to retigabine = 100%, negative values = antagonistic

SMILES	pEC50	Emax [1] [%]	Fluorimetry % efficacy (I/EC50, retigabine = 100%) [1] [%]
CC(C)(C)CC(=O)Nc1cccnc1SCCSc1ccc(F)cc1 [Example 61, N-[2-[2-[(4-Fluorophenyl)sulfanyl]-ethylsulfanyl]-pyridin-3-yl]-3,3-dimethyl butyramide]	7.56	129	
O=C(CC1CCCCCC1)Nc1cccnc1SCCS(=O)(=O)c1cccc(C(F)(F)F)c1 [Example 49, 2-Cycloheptyl-N-[2-[2-[[3-(trifluoromethyl)phenyl]sulfonyl]-ethylsulfanyl]-pyridin-3-yl]acetamide]	7.72	108	
O=C(CC1CCCCO1)Nc1cccnc1SCCS(=O)(=O)c1cccc(C(F)(F)F)c1 (stereo not shown) [Example 39, 2-Tetrahydropyran-2-yl-N-[2-[2-[[3-(trifluoromethyl)phenyl]sulfonyl]-ethylsulfanyl]-pyridin-3-yl]acetamide]	6.44	139	
O=C(CC1CCCCC1)Nc1cccnc1SCCSc1cccc(C(F)(F)F)c1 [Example 29, 2-Cyclohexyl-N-[2-[2-[[3-(trifluoromethyl)phenyl]sulfanyl]-ethylsulfanyl]-pyridin-3-yl]acetamide]	6.51	108	
O=C(Cc1cccs1)Nc1cccnc1SCCS(=O)(=O)c1ccccc1 [Example 7, N-[2-[2-(Benzenesulfonyl)-ethylsulfanyl]-pyridin-3-yl]-2-thiophen-2-yl acetamide]	6.37	125	
O=C(CCCc1ccccc1)Nc1cccnc1SCCS(=O)(=O)c1cccc(C(F)(F)F)c1 [Example 25, 4-Phenyl-N-[2-[2-[[3-(trifluoromethyl)phenyl]sulfonyl]-ethylsulfanyl]-pyridin-3-yl]-butyramide]	7.15	170	
O=C(Cc1cccc(O)c1)Nc1cccnc1SCCS(=O)(=O)c1cccc(C(F)(F)F)c1 [Example 37, 2-(3-Hydroxyphenyl)-N-[2-[2-[[3-(trifluoromethyl)phenyl]sulfonyl]-ethylsulfanyl]-pyridin-3-yl]acetamide]		31	
Cc1ccnc(SCCS(=O)(=O)c2cccc(C(F)(F)F)c2)c1NC(=O)Cc1cccs1 [Example 56, N-[4-Methyl-2-[2-[[3-(trifluoromethyl)phenyl]sulfonyl]-ethylsulfanyl]-pyridin-3-yl]-2-thiophen-2-yl acetamide]	6.46	98.1	
O=C(Cc1cccs1)Nc1cccnc1SCCOc1ccccc1 [Example 45, N-[2-(2-Phenoxy-ethylsulfanyl)-pyridin-3-yl]-2-thiophen-2-yl acetamide]			58
O=C(Cc1ccc2ccccc2c1)Nc1cccnc1SCCS(=O)(=O)c1cccc(C(F)(F)F)c1 [Example 24, 2-Naphthalen-2-yl-N-[2-[2-[[3-(trifluoromethyl)phenyl]sulfonyl]-ethylsulfanyl]-pyridin-3-yl]acetamide]	6.82	84	
O=C(Cc1ccncc1)Nc1cccnc1SCCS(=O)(=O)c1cccc(C(F)(F)F)c1 [Example 36, 2-Pyridin-4-yl-N-[2-[2-[[3-(trifluoromethyl)phenyl]sulfonyl]-ethylsulfanyl]-pyridin-3-yl]acetamide]		38	
O=C(Cc1ccc(O)cc1)Nc1cccnc1SCCS(=O)(=O)c1cccc(C(F)(F)F)c1 [Example 13, 2-(4-Hydroxyphenyl)-N-[2-[2-[[3-(trifluoromethyl)phenyl]sulfonyl]-ethylsulfanyl]-pyridin-3-yl]acetamide]		46	
O=C(CC1CCCCC1)Nc1cccnc1SCCS(=O)(=O)c1cccc(C(F)(F)F)c1 [Example 2, 2-Cyclohexyl-N-[2-[2-[[3-(trifluoromethyl)phenyl]sulfonyl]-ethylsulfanyl]-pyridin-3-yl]acetamide]	7.57	142	
O=C(Nc1cccnc1SCCS(=O)(=O)c1cccc(C(F)(F)F)c1)c1ccc(F)cc1O [Example 51, 4-Fluoro-2-hydroxy-N-[2-[2-[[3-(trifluoromethyl)phenyl]sulfonyl]-ethylsulfanyl]-pyridin-3-yl]benzamide]	6.97	32	
O=C(Cc1cccs1)Nc1cccnc1SCCOc1cccc(C(F)(F)F)c1 [Example 22, 2-Thiophen-2-yl-N-[2-[2-[3-(trifluoromethyl)-phenoxy]-ethylsulfanyl]-pyridin-3-yl]acetamide]	6.14	155	
O=C(Nc1cccnc1SCCS(=O)(=O)c1cccc(C(F)(F)F)c1)c1ccccc1O [Example 53, 2-Hydroxy-N-[2-[2-[[3-(trifluoromethyl)phenyl]sulfonyl]-ethylsulfanyl]-pyridin-3-yl]benzamide]		27.4	
O=C(Cc1cccs1)Nc1cccnc1SCCCc1ccccc1 [Example 33, N-[2-(3-Phenyl-propylsulfanyl)-pyridin-3-yl]-2-thiophen-2-yl acetamide]	6.85	106	
O=C(CCC1CCCCC1)Nc1cccnc1SCCS(=O)(=O)c1cccc(C(F)(F)F)c1 [Example 41, 3-Cyclohexyl-N-[2-[2-[[3-(trifluoromethyl)phenyl]sulfonyl]-ethylsulfanyl]-pyridin-3-yl]propionamide]	7.00	127	
O=C(Cc1ccccn1)Nc1cccnc1SCCS(=O)(=O)c1cccc(C(F)(F)F)c1 [Example 60, 2-Pyridin-2-yl-N-[2-[2-[[3-(trifluoromethyl)phenyl]sulfonyl]-ethylsulfanyl]-pyridin-3-yl]acetamide]	5.99	101	
O=C(Cc1cccs1)Nc1cccnc1SCCSc1cccc(C(F)(F)F)c1 [Example 20, 2-Thiophen-2-yl-N-[2-[2-[[3-(trifluoromethyl)phenyl]sulfanyl]-ethylsulfanyl]-pyridin-3-yl]acetamide]	6.74	97	
O=C(Nc1cccnc1SCCS(=O)(=O)c1cccc(C(F)(F)F)c1)C(F)(F)C1CCCCC1 [Example 68, 2-Cyclohexyl-2,2-difluoro-N-[2-[2-[[3-(trifluoromethyl)phenyl]sulfonyl]-ethylsulfanyl]-pyridin-3-yl]acetamide]	7.66	79	
CC(C)(C)CC(=O)Nc1cccnc1SCCCc1ccc(F)cc1 [Example 66, N-[2-[3-(4-Fluorophenyl)-propylsulfanyl]-pyridin-3-yl]-3,3-dimethyl butyramide]	6.74	176	
O=C(Cc1cccs1)Nc1cccnc1SCCCc1cccc(C(F)(F)F)c1 [Example 23, 2-Thiophen-2-yl-N-[2-[3-[3-(trifluoromethyl)phenyl]-propylsulfanyl]-pyridin-3-yl]acetamide]	6.80	165	
O=C(Cc1cccs1)Nc1cccnc1SCCSc1ccccc1 [Example 21, N-[2-(2-Phenylsulfanyl-ethylsulfanyl)-pyridin-3-yl]-2-thiophen-2-yl acetamide]	7.08	152	
O=C(CC1CCc2ccccc2C1)Nc1cccnc1SCCS(=O)(=O)c1cccc(C(F)(F)F)c1 (stereo not shown) [Example 52, 2-(1,2,3,4-Tetrahydronaphthalen-2-yl)-N-[2-[2-[[3-(trifluoromethyl)phenyl]sulfonyl]-ethylsulfanyl]-pyridin-3-yl]acetamide]	6.68	59	
O=C(Cc1cccnc1)Nc1cccnc1SCCS(=O)(=O)c1cccc(C(F)(F)F)c1 [Example 46, 2-Pyridin-3-yl-N-[2-[2-[[3-(trifluoromethyl)phenyl]sulfonyl]-ethylsulfanyl]-pyridin-3-yl]acetamide]		50	
